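How tested: cells in 96-well plates exposed to compound for 48 hours at five concentrations. At the GI50, growth is halved. TGI denotes the concentration required for complete inhibition of growth.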
How the values were obtained:
Assay in all cases: inhibition of tumour cell growth, NCI panel, 48 h
SW-620 colon = test system: SW-620 colon
NCI/ADR-RES ovarian = test system: NCI/ADR-RES ovarian
COLO 205 colon = test system: COLO 205 colon
SNB-75 CNS = test system: SNB-75 CNS
BT-549 breast = test system: BT-549 breast
MDA-MB-231 breast = test system: MDA-MB-231 breast
DU-145 prostate = test system: DU-145 prostate
HOP-62 NSCLC = test system: HOP-62 NSCLC
OVCAR-3 ovarian = test system: OVCAR-3 ovarian
HOP-92 NSCLC = test system: HOP-92 NSCLC
SR leukemia = test system: SR leukemia
OVCAR-4 ovarian = test system: OVCAR-4 ovarian
HT29 colon = test system: HT29 colon
MCF7 breast = test system: MCF7 breast
NCI-H226 lung = test system: NCI-H226 lung
CAKI-1 renal = test system: CAKI-1 renal
U251 CNS = test system: U251 CNS
TK-10 renal = test system: TK-10 renal
PC-3 prostate = test system: PC-3 prostate
HCC-2998 colon = test system: HCC-2998 colon
CCRF-CEM leukemia = test system: CCRF-CEM leukemia
MOLT-4 leukemia = test system: MOLT-4 leukemia
SF-295 CNS = test system: SF-295 CNS
SF-539 CNS = test system: SF-539 CNS
HCT-15 colon = test system: HCT-15 colon
NCI-H23 lung = test system: NCI-H23 lung
786-0 renal = test system: 786-0 renal
KM12 colon = test system: KM12 colon
T-47D breast = test system: T-47D breast
SK-MEL-5 melanoma = test system: SK-MEL-5 melanoma
OVCAR-8 ovarian = test system: OVCAR-8 ovarian
RXF 393 renal = test system: RXF 393 renal
A549 NSCLC = test system: A549 NSCLC
NCI-H522 lung = test system: NCI-H522 lung
K-562 leukemia = test system: K-562 leukemia
SN12C renal = test system: SN12C renal
ACHN renal = test system: ACHN renal
SK-OV-3 ovarian = test system: SK-OV-3 ovarian
MDA-MB-435 = test system: MDA-MB-435
HL-60(TB) leukemia = test system: HL-60(TB) leukemia
EKVX NSCLC = test system: EKVX NSCLC
SK-MEL-28 melanoma = test system: SK-MEL-28 melanoma
UO-31 renal = test system: UO-31 renal
M14 melanoma = test system: M14 melanoma
OVCAR-5 ovarian = test system: OVCAR-5 ovarian
UACC-257 melanoma = test system: UACC-257 melanoma
IGROV1 ovarian = test system: IGROV1 ovarian
SNB-19 CNS = test system: SNB-19 CNS
HS 578T breast = test system: HS 578T breast
MDA-MB-468 breast = test system: MDA-MB-468 breast
UACC-62 melanoma = test system: UACC-62 melanoma
MALME-3M melanoma = test system: MALME-3M melanoma
SK-MEL-2 melanoma = test system: SK-MEL-2 melanoma
LOX IMVI melanoma = test system: LOX IMVI melanoma
NCI-H460 lung = test system: NCI-H460 lung
SF-268 CNS = test system: SF-268 CNS
A498 renal = test system: A498 renal
RPMI-8226 leukemia = test system: RPMI-8226 leukemia
HCT-116 colon = test system: HCT-116 colon

Structure (SMILES): O=C(c1ccc(O)cc1)C1[C@H](c2ccc(Cl)cc2)[C@@H](c2ccccc2)NC12C(=O)Nc1ccccc12 (stereo partly drawn)
- GI50 (SW-620 colon): 8.11 µM
- TGI (SW-620 colon): 16 µM
- GI50 (NCI/ADR-RES ovarian): 5.72 µM
- TGI (NCI/ADR-RES ovarian): 11.8 µM
- GI50 (COLO 205 colon): 7.17 µM
- TGI (COLO 205 colon): 15.3 µM
- GI50 (SNB-75 CNS): 5.25 µM
- TGI (SNB-75 CNS): 11 µM
- GI50 (BT-549 breast): 8.32 µM
- TGI (BT-549 breast): 14.6 µM
- GI50 (MDA-MB-231 breast): 5.38 µM
- TGI (MDA-MB-231 breast): 10.8 µM
- GI50 (DU-145 prostate): 7.77 µM
- TGI (DU-145 prostate): 15.4 µM
- GI50 (HOP-62 NSCLC): 6.99 µM
- TGI (HOP-62 NSCLC): 14.7 µM
- GI50 (OVCAR-3 ovarian): 6.95 µM
- TGI (OVCAR-3 ovarian): 13.9 µM
- GI50 (HOP-92 NSCLC): 6.03 µM
- TGI (HOP-92 NSCLC): 12.4 µM
- GI50 (SR leukemia): 5.14 µM
- TGI (SR leukemia): 42 µM
- GI50 (OVCAR-4 ovarian): 7.17 µM
- TGI (OVCAR-4 ovarian): 16.3 µM
- GI50 (HT29 colon): 6.11 µM
- TGI (HT29 colon): 13.3 µM
- GI50 (MCF7 breast): 7.26 µM
- TGI (MCF7 breast): 17.2 µM
- GI50 (NCI-H226 lung): 5.37 µM
- TGI (NCI-H226 lung): 11.8 µM
- GI50 (CAKI-1 renal): 5.19 µM
- TGI (CAKI-1 renal): 10.8 µM
- GI50 (U251 CNS): 6.57 µM
- TGI (U251 CNS): 12.7 µM
- GI50 (TK-10 renal): 6.8 µM
- TGI (TK-10 renal): 13.2 µM
- GI50 (PC-3 prostate): 4.32 µM
- TGI (PC-3 prostate): 11.7 µM
- GI50 (HCC-2998 colon): 6.27 µM
- TGI (HCC-2998 colon): 12 µM
- GI50 (CCRF-CEM leukemia): 5.9 µM
- TGI (CCRF-CEM leukemia): 19.8 µM
- GI50 (MOLT-4 leukemia): 4.84 µM
- TGI (MOLT-4 leukemia): 18.7 µM
- GI50 (SF-295 CNS): 5.63 µM
- TGI (SF-295 CNS): 11 µM
- GI50 (SF-539 CNS): 7.02 µM
- TGI (SF-539 CNS): 12.8 µM
- GI50 (HCT-15 colon): 5.6 µM
- TGI (HCT-15 colon): 12.4 µM
- GI50 (NCI-H23 lung): 6.29 µM
- TGI (NCI-H23 lung): 12.3 µM
- GI50 (786-0 renal): 6.25 µM
- TGI (786-0 renal): 12.2 µM
- GI50 (KM12 colon): 7.65 µM
- TGI (KM12 colon): 16.1 µM
- GI50 (T-47D breast): 5.14 µM
- TGI (T-47D breast): 12.9 µM
- GI50 (SK-MEL-5 melanoma): 6.91 µM
- TGI (SK-MEL-5 melanoma): 12.7 µM
- GI50 (OVCAR-8 ovarian): 7.2 µM
- TGI (OVCAR-8 ovarian): 14.1 µM
- GI50 (RXF 393 renal): 5.77 µM
- TGI (RXF 393 renal): 11.5 µM
- GI50 (A549 NSCLC): 5.8 µM
- TGI (A549 NSCLC): 12.2 µM
- GI50 (NCI-H522 lung): 6.05 µM
- TGI (NCI-H522 lung): 12.5 µM
- GI50 (K-562 leukemia): 8.89 µM
- TGI (K-562 leukemia): 42 µM
- GI50 (SN12C renal): 6.26 µM
- TGI (SN12C renal): 12 µM
- GI50 (ACHN renal): 6.08 µM
- TGI (ACHN renal): 11.6 µM
- GI50 (SK-OV-3 ovarian): 7.32 µM
- TGI (SK-OV-3 ovarian): 14 µM
- GI50 (MDA-MB-435): 7.01 µM
- TGI (MDA-MB-435): 13.6 µM
- GI50 (HL-60(TB) leukemia): 7.96 µM
- TGI (HL-60(TB) leukemia): 25.6 µM
- GI50 (EKVX NSCLC): 5.3 µM
- TGI (EKVX NSCLC): 10.9 µM
- GI50 (SK-MEL-28 melanoma): 7.02 µM
- TGI (SK-MEL-28 melanoma): 12.9 µM
- GI50 (UO-31 renal): 4.73 µM
- TGI (UO-31 renal): 9.79 µM
- GI50 (M14 melanoma): 6.19 µM
- TGI (M14 melanoma): 13.6 µM
- GI50 (OVCAR-5 ovarian): 6.42 µM
- TGI (OVCAR-5 ovarian): 12.1 µM
- GI50 (UACC-257 melanoma): 6.79 µM
- TGI (UACC-257 melanoma): 12.9 µM
- GI50 (IGROV1 ovarian): 5.18 µM
- TGI (IGROV1 ovarian): 10.6 µM
- GI50 (SNB-19 CNS): 6.71 µM
- TGI (SNB-19 CNS): 12.4 µM
- GI50 (HS 578T breast): 6.96 µM
- TGI (HS 578T breast): 18.8 µM
- GI50 (MDA-MB-468 breast): 4.86 µM
- TGI (MDA-MB-468 breast): 10.3 µM
- GI50 (UACC-62 melanoma): 5 µM
- TGI (UACC-62 melanoma): 10.2 µM
- GI50 (MALME-3M melanoma): 6.68 µM
- TGI (MALME-3M melanoma): 12.4 µM
- GI50 (SK-MEL-2 melanoma): 6.03 µM
- TGI (SK-MEL-2 melanoma): 12.1 µM
- GI50 (LOX IMVI melanoma): 4.97 µM
- TGI (LOX IMVI melanoma): 10.1 µM
- GI50 (NCI-H460 lung): 7.63 µM
- TGI (NCI-H460 lung): 15.3 µM
- GI50 (SF-268 CNS): 7 µM
- TGI (SF-268 CNS): 15.8 µM
- GI50 (A498 renal): 5.89 µM
- TGI (A498 renal): 11.8 µM
- GI50 (RPMI-8226 leukemia): 8.61 µM
- TGI (RPMI-8226 leukemia): 29.9 µM
- GI50 (HCT-116 colon): 6.22 µM
- TGI (HCT-116 colon): 12.8 µM

From PubChem BioAssay (NCI)
